# Experimental data reported in PMC10893103, “Cyclodextrin-Enabled Enantioselective Complexation Study of Cathinone Analogs” (Molecules, 2024).
# Read-outs that look alike come from different tables or passages of the source.
# Legend:
# [1] = Affinity capillary electrophoresis (ACE), pH 4.5; conditions: 20 mM acetate buffer pH 4.5, 25C, 15 kV
# Description: The simplest way to determine the mobility is from the migration times (tmax) read from the electropherograms from which the apparent mobility could be calculated, but more accurate mobility values could be obtained by the determination with the Haarhoff–van der Linde (HVL) function based on Equation (2). (2) HVLδ(t;a0,a1,a2,a3δ)=a0/a2a3δ2πexp[−1/2(t−a1/a2)^2]/1/exp(a3δ)−1+1/2[1+erf(t−a1/2a2)] where a0 is the area of the HVL function, a1 is the position of the Gaussian component, a2 is the standard deviation of the Gaussian component, and a3δ is the peak shape distortion. The application of the HVL function is necessary in the case of accurate ACE measurements because, in several cases, the peaks are distorted due to the complex formation, which makes reading the migration times and calculating the mobility more difficult and imprecise.
# The most popular technique for quantifying the analyte–ligand interaction with CE is mobility shift ACE. This technique involves varying the background electrolyte’s ligand concentrations while introducing a constant volume of the analyte and an EOF marker into the capillary. The analyte–ligand equilibrium is assumed to happen before the separation is complete, requiring fast complex formation kinetics. Typical ligand concentrations are 1–2 orders of magnitude greater than the analyte. The following equation describes the observed mobility as a function of the interaction with the following analyte ligand:(3) μ=μfff+μcfc where μ is the observed mobility, μf and μc are the electrophoretic mobility of the free and complexed analyte, and ff and fc are the free and ligand-bound fractions of the analyte.
# Assuming a 1:1 binding stoichiometry, the effective mobility (μeff, calculated by correcting with the EOF marker mobility) can be expressed as (4) μeff=μfK+μc[L]/K+[L] where K is the equilibrium dissociation constant and [L] is the ligand concentration. The apparent complex stability constant (K) can be calculated using several methods, e.g., the X-reciprocal method with linear fitting, but non-linear curve fitting based on Equation (4) is more accurate. A hyperbolic growing or decline curve is obtained, and K could be determined by plotting the effective mobility as a function of the [L] (e.g., CD concentration) in the background electrolyte. The CEval software enables faster and simpler evaluation of electropherograms and further data processing to determine the stability constants of complexes with a 1:1 stoichiometric ratio [27].
# During the ACE measurement series, the CD concentration is increased whilst injecting a constant amount of the cathinone derivatives and the EOF marker DMSO. The complex stability calculations were conducted with the CEval program applying the HVL function to eliminate the effect of electromigration dispersion on migration time for exact mobility and, thus complex stability constant determination. Viscosity correction and ionic strength correction were applied. […]
# [2] = Affinity capillary electrophoresis (ACE), pH 7.4; conditions: 30 mM phosphate buffer pH 7.4, 25 °C, 15 kV
# Outline: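 Mobility-shift ACE of cathinone analogues with cyclodextrins (0.25–20 mM in BGE) in 30 mM phosphate pH 7.4, 25 °C, fused-silica capillary, 15 kV, UV 215 nm, DMSO as EOF marker. Mobilities obtained by HVL peak fitting; complex stability constants corrected for viscosity and ionic strength.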
# [3] = pKa determination by CE-pH titration; assay type: physicochemical; conditions: 25 mM Na2HPO4 / 25 mM Na2B4O7 buffers, pH 7–10, 25 °C
# Description: CE is a widely used technique for the analysis of charged compounds; thus, the acid-base properties and the pKa of the analyte are crucial in CE method development. Furthermore, the protonation state of compounds has a decisive influence on both their behavior in the body and their affinity for CDs. […] However, it has the disadvantage that its reproducibility is less than that of conventional pH potentiometry; thus, the results of CE-pH titration should be confirmed by independent method (potentiometry, NMR-pH titration).
# In order to determine the pKa of the five cathinone analogs, CE-pH titration was applied, in which the purpose was to register the effective mobility changes as a function of pH. As the five tested compounds contain secondary or tertiary amino groups, the pH range tested was pH 7–10, applying Na2HPO4 -Na2B4O7 buffers, where the appropriate pH was adjusted with hydrochloric acid. At a given pH, the mobility is determined by the sum of the mobility of the protonated and deprotonated forms:(1) μpH=μLxL+μHLxHL=μL+μHLKH^+/1+KH^+ where the μpH is the mobility of the compound at the given pH; μL and μHL are the mobilities of the deprotonated and protonated forms, respectively; xL and xHL are the mole fractions of the deprotonated and protonated forms, respectively; and K is the protonation constant. Plotting the μpH data against pH gives the titration curves from which the protonation constant can be calculated according to Equation (1).
# [4] = pKa determination by potentiometry; assay type: physicochemical; conditions: aqueous solution; I = 0.15 M KCl, 25.0 °C
# Procedure: The protonation constants were confirmed by potentiometry using a GLpKa instrument (Sirius, Forest Row, UK) equipped with a combination Ag/AgCl pH electrode. The four-parameter technique (Four PlusTM method) was used for electrode calibration. The titrations were carried out at constant ionic strength (I = 0.15 M KCl) and temperature (T = 25.0 ± 0.5 °C) under a nitrogen atmosphere. An amount of 10 ml of a ~1 mM aqueous solution of the analytes (4-MEC, MDPV) was pre-acidified to pH 2.0 with 0.5 M HCl and then titrated with 0.5 M KOH to pH 12.2. Three parallel measurements were carried out. The pKa values were calculated using the RefinementProTM software (Sirius, Forest Row, UK).
# [5] = CE-pH titration; cited from earlier work
smiles,measurement,setting,value
"CO[C@@H]1[C@@H](OC)[C@H]2O[C@H]3[C@H](OC)[C@@H](OC)[C@@H](O[C@H]4[C@H](OC)[C@@H](OC)[C@@H](O[C@H]5[C@H](OC)[C@@H](OC)[C@@H](O[C@H]6[C@H](OC)[C@@H](OC)[C@@H](O[C@H]7[C@H](OC)[C@@H](OC)[C@@H](O[C@H]8[C@H](OC)[C@@H](OC)[C@@H](O[C@@H]1[C@@H](COS(=O)(=O)O)O2)O[C@@H]8COS(=O)(=O)O)O[C@@H]7COS(=O)(=O)O)O[C@@H]6COS(=O)(=O)O)O[C@@H]5COS(=O)(=O)O)O[C@@H]4COS(=O)(=O)O)O[C@@H]3COS(=O)(=O)O [HDMS-β-CD, heptakis-(2,3-O-dimethyl, 6-O-sulfo)-β-CD]",4-MEC–CD complex stability constant Kstab1 (first migrating enantiomer),[1],170 ± 15 M⁻¹
same,"4-MEC–CD complex stability constant, Kstab2 (second migrating enantiomer)",[1],190 ± 15 M⁻¹
same,Butylone–CD complex stability constant Kstab1 (first migrating enantiomer),[1],150 ± 10 M⁻¹
same,"Butylone–CD complex stability constant, Kstab2 (second migrating enantiomer)",[1],180 ± 12 M⁻¹
same,Flephedrone–CD complex stability constant Kstab1 (first migrating enantiomer),[1],250 ± 7 M⁻¹
same,"Flephedrone–CD complex stability constant, Kstab2 (second migrating enantiomer)",[1],235 ± 20 M⁻¹
same,MDPV–CD complex stability constant Kstab1 (first migrating enantiomer),[1],160 ± 15 M⁻¹
same,"MDPV–CD complex stability constant, Kstab2 (second migrating enantiomer)",[1],175 ± 12 M⁻¹
same,Mephedrone–CD complex stability constant Kstab1 (first migrating enantiomer),[1],205 ± 20 M⁻¹
same,"Mephedrone–CD complex stability constant, Kstab2 (second migrating enantiomer)",[1],205 ± 15 M⁻¹
same,"MDPV–CD complex stability constant, Kstab/Kstab1 (unresolved or first migrating enantiomer)",[2],915 ± 265 M⁻¹
"CCNC(C)C(=O)c1ccc(C)cc1 (racemic) [4-MEC, (±)-2-(ethylamino)-1-(4-methylphenyl)propan-1-one]",pKa,[3],8.81 ± 0.02
same,pKa,[4],8.85 ± 0.04
"CCCC(C(=O)c1ccc2c(c1)OCO2)N1CCCC1 (racemic) [MDPV, (±)-1-(benzo[d]-[1, 3]-dioxol-5-yl)-2-(pyrrolidin-1-yl)pentan-1-one]",pKa,[5],9.13
same,pKa,[3],9 ± 0.02
same,pKa,[4],9.05 ± 0.04
"CNC(C)C(=O)c1ccc(F)cc1 (racemic) [Flephedrone, (±)-1-(4-fluorophenyl)-2-(methylamino)propan-1-one]",pKa,[3],8.56 ± 0.01
"CC(=O)O[C@@H]1[C@@H](OC(C)=O)[C@H]2O[C@H]3[C@H](OC(C)=O)[C@@H](OC(C)=O)[C@@H](O[C@H]4[C@H](OC(C)=O)[C@@H](OC(C)=O)[C@@H](O[C@H]5[C@H](OC(C)=O)[C@@H](OC(C)=O)[C@@H](O[C@H]6[C@H](OC(C)=O)[C@@H](OC(C)=O)[C@@H](O[C@H]7[C@H](OC(C)=O)[C@@H](OC(C)=O)[C@@H](O[C@H]8[C@H](OC(C)=O)[C@@H](OC(C)=O)[C@@H](O[C@@H]1[C@@H](COS(=O)(=O)O)O2)O[C@@H]8COS(=O)(=O)O)O[C@@H]7COS(=O)(=O)O)O[C@@H]6COS(=O)(=O)O)O[C@@H]5COS(=O)(=O)O)O[C@@H]4COS(=O)(=O)O)O[C@@H]3COS(=O)(=O)O [HDAS-β-CD, heptakis-(2,3-O-diacethyl, 6-O-sulfo)-β-CD]",Flephedrone–CD complex stability constant Kstab1 (first migrating enantiomer),[1],470 ± 40 M⁻¹
same,"Flephedrone–CD complex stability constant, Kstab2 (second migrating enantiomer)",[1],660 ± 55 M⁻¹
same,MDPV–CD complex stability constant Kstab1 (first migrating enantiomer),[1],800 ± 50 M⁻¹
same,"MDPV–CD complex stability constant, Kstab2 (second migrating enantiomer)",[1],960 ± 80 M⁻¹
same,"4-MEC–CD complex stability constant, Kstab2 (second migrating enantiomer)",[2],830 ± 45 M⁻¹
same,"4-MEC–CD complex stability constant, Kstab/Kstab1 (unresolved or first migrating enantiomer)",[2],560 ± 40 M⁻¹
same,"Butylone–CD complex stability constant, Kstab/Kstab1 (unresolved or first migrating enantiomer)",[2],725 ± 20 M⁻¹
same,"Flephedrone–CD complex stability constant, Kstab2 (second migrating enantiomer)",[2],360 ± 75 M⁻¹
same,"Flephedrone–CD complex stability constant, Kstab/Kstab1 (unresolved or first migrating enantiomer)",[2],110 ± 37 M⁻¹
same,"MDPV–CD complex stability constant, Kstab2 (second migrating enantiomer)",[2],340 ± 30 M⁻¹
same,"MDPV–CD complex stability constant, Kstab/Kstab1 (unresolved or first migrating enantiomer)",[2],360 ± 55 M⁻¹
same,"Mephedrone–CD complex stability constant, Kstab2 (second migrating enantiomer)",[2],730 ± 40 M⁻¹
same,"Mephedrone–CD complex stability constant, Kstab/Kstab1 (unresolved or first migrating enantiomer)",[2],450 ± 60 M⁻¹
"CNC(C)C(=O)c1ccc(C)cc1 (racemic) [Mephedrone, (±)-2-(methylamino)-1-(4-methylphenyl)propan-1-one]",pKa,[5],8.82
same,pKa,[3],8.61 ± 0.01
"O=S(=O)(O)OC[C@H]1O[C@@H]2O[C@H]3[C@H](O)[C@@H](O)[C@@H](O[C@H]4[C@H](O)[C@@H](O)[C@@H](O[C@H]5[C@H](O)[C@@H](O)[C@@H](O[C@H]6[C@H](O)[C@@H](O)[C@@H](O[C@H]7[C@H](O)[C@@H](O)[C@@H](O[C@H]8[C@H](O)[C@@H](O)[C@@H](O[C@H]1[C@H](O)[C@H]2O)O[C@@H]8COS(=O)(=O)O)O[C@@H]7COS(=O)(=O)O)O[C@@H]6COS(=O)(=O)O)O[C@@H]5COS(=O)(=O)O)O[C@@H]4COS(=O)(=O)O)O[C@@H]3COS(=O)(=O)O [HS-β-CD, heptakis-(6-O-sulfo)-β-CD]",Flephedrone–CD complex stability constant Kstab1 (first migrating enantiomer),[1],635 ± 35 M⁻¹
same,"Flephedrone–CD complex stability constant, Kstab2 (second migrating enantiomer)",[1],615 ± 30 M⁻¹
same,MDPV–CD complex stability constant Kstab1 (first migrating enantiomer),[1],500 ± 45 M⁻¹
same,"Flephedrone–CD complex stability constant, Kstab2 (second migrating enantiomer)",[2],470 ± 65 M⁻¹
same,"Flephedrone–CD complex stability constant, Kstab/Kstab1 (unresolved or first migrating enantiomer)",[2],580 ± 14 M⁻¹
"CCC(NC)C(=O)c1ccc2c(c1)OCO2 (racemic) [Butylone, (±)-1-(1,3-benzodioxol-5-yl)-2-(methylamino)-butan-1-one]",pKa,[3],8.64 ± 0.01
"O=C(O)CCSC[C@H]1O[C@@H]2O[C@H]3[C@H](O)[C@@H](O)[C@@H](O[C@H]4[C@H](O)[C@@H](O)[C@@H](O[C@H]5[C@H](O)[C@@H](O)[C@@H](O[C@H]6[C@H](O)[C@@H](O)[C@@H](O[C@H]7[C@H](O)[C@@H](O)[C@@H](O[C@H]8[C@H](O)[C@@H](O)[C@@H](O[C@H]1[C@H](O)[C@H]2O)O[C@@H]8CSCCC(=O)O)O[C@@H]7CSCCC(=O)O)O[C@@H]6CSCCC(=O)O)O[C@@H]5CSCCC(=O)O)O[C@@H]4CSCCC(=O)O)O[C@@H]3CSCCC(=O)O [SBX, heptakis-(6-deoxy-6-(2-carboxyethyl)thio)-β-CD]","Flephedrone–CD complex stability constant, Kstab2 (second migrating enantiomer)",[2],610 ± 45 M⁻¹
same,"Flephedrone–CD complex stability constant, Kstab/Kstab1 (unresolved or first migrating enantiomer)",[2],575 ± 35 M⁻¹
same,"MDPV–CD complex stability constant, Kstab2 (second migrating enantiomer)",[2],"12,830 ± 900 M^−1"
